Series [1] concerns the target T1, BRD4-1 (Homo sapiens, UniProt O60885).
T1 construct: made in house; host or cells: Escherichia coli
The series can be described thus: BRD4-1 Ligand KI assay (TR-FRET displacement of Cy5 labeled probe). In kind it is binding. How it is done:
Binding of the two tandem bromodomains, BRD4-I and BRD4-2, to a Cy5 labeled probe/ligand (Compound 201-A) were measured using a homogeneous time resolved fluorescence resonance energy transfer (TR-FRET) assay.
(§1) The labeled ligand specifically binds BRD4-1 and BRD4-2 and can be displaced by a small molecule inhibitor that shares a similar or overlapping binding site. BRD4-I and BRD4-2 were expressed and purified from Escherichia coli as N-terminal His6-tagged proteins. A Eu-cryptate labeled anti-His antibody (Perkin Elmer) was used to specifically bind BRD4. […] Assays were performed in 50 mM Hepes (pH 7.5), 150 mM NaCl, 0.1 mg/ml BSA, 0.01% (v/v) Brij, 0.5% (v/v) DMSO and 10 nM labeled ligand at the following concentrations for each BRD4 isoform: 2 nM BRD4-1 and 0.5 nM BRD4-2. After an assay reaction time of 60 minutes at 25° C., binding was measured with 2 nM Eu-cryptate labeled anti-His antibody. TR-FRET signal was detected on an Envision plate reader (Ex: 320 nm; Em: 615/665 nm; 100 μs delay and 200 μs read window). Data were normalized based on a positive (2 μM I-BET) and negative (DMSO) controls and IC50 values were calculated from the fit of the dose-response curves to a four-parameter equation. All IC50 values represent geometric mean values of a minimum of four determinations. The IC50 values were converted to Ki values (dissociation constant for BRD4-inhibitor complex) using the Cheng and Prusoff equation for a competitive inhibitor mode of action. These assays generally produced results within 3-fold of the reported mean.

Series [2] in a line: MT-4 proliferation assay in 384-well format (Cell Titer Glo). The note with it: human, MT-4 cells, Table 2, 50% decrease in luminescence signal, read-out: CC50 MT4 384. In kind it is cell-based, human. As for the experimental part: Compounds were tested in a standardized high-throughput 384-well assay format. Each compound was serially diluted 3-fold in 100% DMSO in polypropylene 384-well plates using a Biomek FX Workstation, and 0.4 μL compound added to an assay plate containing 40 μL RPMI media. Compounds were arranged in a horizontal pattern, with 10 concentrations per compound, and 8 compounds added per plate. Due to low DMSO tolerability, the final DMSO concentration never exceeded 0.5% (v/v). Each assay plate contained 10 μM Puromycin and 0.5% DMSO in RPMI-1640 as positive and negative controls respectively. MT-4 cells (HTLV-1 transformed, human T lymphoblastoid cells, NIH Aids Reagent program) were added in volumes of 35 μL per well and 2,000 cells per well using a Biotek uFlow Workstation (Biotek, Winooski, Vt.), and the plates subsequently incubated for 5 days at 37° C. in an incubator set at 5% CO2 and 90% humidity.
After 5 days, 22 μL Cell Titer Glo (Promega) was added to the assay plates with a Biotek uFlow Workstation. Plates were subsequently placed on a Perkin Elmer Envision Plate Reader for 5 minutes before the luminescence signal was read. CC50 values were calculated from the compound concentration that caused a 50% decrease in luminescence signal, a measure of toxicity, and calculated by non-linear regression using Pipeline Pilot software (Accelrys, San Diego, Calif.).

Series [3] has as its target T2, BRD4-2 (Homo sapiens, UniProt O60885).
T2 construct: made in house; host or cells: Escherichia coli
Nature of the series: BRD4-2 Ligand KI assay (TR-FRET displacement of Cy5 labeled probe). In kind it is binding. As for the experimental part:
as §1, with “BRD4-I” for “The labeled ligand specifically binds BRD4-1 and BRD4-2 and can be displaced by a small molecule inhibitor that shares a similar or overlapping binding site. BRD4-I”, “action.” for “action. These assays generally produced results within 3-fold of the reported mean.”

For series [4], the system named is c-Myc produced in MM1S cells. Nature of the series: c-Myc down regulation assay (MSD ELISA) in MM1S cells. In kind it is cell-based. The note with it: Homo sapiens, MM1.S, 24 hrs incubation, geometric mean, read-out: cMYC EC50. How it is done:
An enzyme linked immunosorbent assay using the Meso Scale Diagnostic (MSD) technology was used to detect levels of c-Myc produced in MM1S cells (ATCC). MM1S cells were cultured in RPMI-1640 media (Corning), supplemented with 10% FBS (Hyclone), 1% penicillin-streptomycin (Cellgro), 2-mercaptoethanol (Gibco) and seeded onto 384-tissue culture treated filter binding plates (Millipore) at a density of 40K cells/well containing titrations of small molecule inhibitors or DMSO (0.4%) in a volume of 100 μl of media. After an incubation time of 24 hrs, cells were lysed (1× lysis buffer (Thermo) supplemented with protease and phosphatase inhibitor cocktail (Thermo)) and the plates centrifuged (1000 rpm, 1 min) to capture c-Myc on MSD plates coated with a monoclonal c-Myc antibody (Origene). Assay wells were washed (3× Invitrogen wash buffer) and probed with a polyclonal c-Myc antibody (Abcam) and MSD detection antibody solution in order to detect levels of c-Myc on the MSD platform. c-Myc capture was reported in pg/ml based on a standard curve using recombinant c-Myc protein (Prosci). EC50 values were calculated from the fit of the dose-response curves to a four-parameter equation. All EC50 values represent geometric mean values of a minimum of four determinations. These assays generally produced results within 3-fold of the reported mean.

Setting [5] is: 10 nM labeled ligand, 2 nM BRD4-1, Ki from IC50 by Cheng and Prusoff, read-out: BRD4-1 Ligand K1.
[6] abbreviates: 10 nM labeled ligand, 0.5 nM BRD4-2, Ki from IC50 by Cheng and Prusoff, read-out: BRD4-2 Ligand K2.

pEC50, pKi: −log10 of the molar value. Where two headings read alike, the source gives them in different places.

Take `Cc1noc(C)c1-c1cc(-c2c(C3CC3)n[nH]c2C2CC2)c2[nH]c(=O)[nH]c2c1` [Example 23, 4-(3,5-dicyclopropyl-1H-pyrazol-4-yl)-6-(3,5-dimethylisoxazol-4-yl)-1H-benzo[d]imidazol-2(3H)-one]: the pKi is 7.89 in series [1] (setting [5]) and 8.52 in series [3] (setting [6]). Besides, the CC50 at 5 days in series [2] is 9.1 nM. Besides, the pEC50 in series [4] is 7.88.
On to `Cc1noc(C)c1-c1cc(C(O)(c2ccccc2)c2ccc3ccc(F)cc3n2)c2[nH]c(=O)[nH]c2c1` (stereo not drawn) [Example 33, 6-(3,5-dimethylisoxazol-4-yl)-4-((7-fluoroquinolin-2-yl)(hydroxy)(phenyl)methyl)-1H-benzo[d]imidazol-2(3H)-one], for which the values for the pKi in series [1] (setting [5]) and in series [3] (setting [6]) were 7.85 and 8.28, respectively. Further, the CC50 at 5 days in series [2] was 29.1 nM. Moreover, the pEC50 in series [4] is 6.75.
Turning to `Cc1noc(C)c1-c1cc(C(O)(c2ccccn2)c2ccc3ccc(F)cc3n2)c2[nH]c(=O)[nH]c2c1` (stereo not drawn) [Example 36, 6-(3,5-dimethylisoxazol-4-yl)-4-((7-fluoroquinolin-2-yl)(hydroxy)(pyridin-2-yl)methyl)-1H-benzo[d]imidazol-2(3H)-one], the pKi is 7.85 in series [1] (setting [5]) and 8.28 in series [3] (setting [6]). Moreover, the CC50 at 5 days in series [2] turned out to be 29.1 nM. The pEC50 in series [4] was 6.75.
With `Cc1noc(C)c1-c1cc(C(O)(c2ccc(F)cn2)c2c(F)cccc2F)c2[nH]c(=O)[nH]c2c1` (stereo not drawn) [Example 38, 4-((2,6-difluorophenyl)(5-fluoropyridin-2-yl)(hydroxy)methyl)-6-(3,5-dimethylisoxazol-4-yl)-1H-benzo[d]imidazol-2(3H)-one], the pKi in series [1] (setting [5]) is 8.11; in series [3] (setting [6]), 8.36. Besides, in series [2], the 50% cytotoxic concentration (CC50) at 5 days turned out to be 29.7 nM. Besides, in series [4], the pEC50 was 7.07.
Consider `Cc1noc(C)c1-c1cc(C(O)(c2ccc(F)cn2)c2ccc(F)cc2F)c2[nH]c(=O)[nH]c2c1` (stereo not drawn) [Example 39, 4-((2,4-difluorophenyl)(5-fluoropyridin-2-yl)(hydroxy)methyl)-6-(3,5-dimethylisoxazol-4-yl)-1H-benzo[d]imidazol-2(3H)-one], for which the pKi in series [1] (setting [5]) was 7.93; in series [3] (setting [6]), 8.23. In addition, the 50% cytotoxic concentration (CC50) at 5 days in series [2] came out at 42.1 nM. Further, the pEC50 in series [4] is 6.89.
As to `Cc1noc(C)c1-c1cc(C(O)(c2ccc(F)cn2)c2cc(F)ccc2F)c2[nH]c(=O)[nH]c2c1` (stereo not drawn) [Example 41, 4-((2,5-difluorophenyl)(5-fluoropyridin-2-yl)(hydroxy)methyl)-6-(3,5-dimethylisoxazol-4-yl)-1H-benzo[d]imidazol-2(3H)-one], the figures for the pKi in series [1] (setting [5]) and in series [3] (setting [6]) were 7.89 and 8.30, respectively. Moreover, in series [2], the CC50 at 5 days came to 47.3 nM. The pEC50 in series [4] was 6.98.
For `Cc1noc(C)c1-c1cc(C(O)(c2cnccn2)c2c(F)cccc2F)c2[nH]c(=O)[nH]c2c1` (stereo not drawn) [Example 49, 4-((2,6-difluorophenyl)(hydroxy)(pyrazin-2-yl)methyl)-6-(3,5-dimethylisoxazol-4-yl)-1H-benzo[d]imidazol-2(3H)-one], the pKi in series [1] (setting [5]) is 8.09. Further, the CC50 at 5 days in series [2] came to 9.7 nM.
As to `Cc1noc(C)c1-c1cc(C(O)(c2cccnn2)c2c(F)cccc2F)c2[nH]c(=O)[nH]c2c1` (stereo not drawn) [Example 50, 4-((2,6-difluorophenyl)(hydroxy)(pyridazin-3-yl)methyl)-6-(3,5-dimethylisoxazol-4-yl)-1H-benzo[d]imidazol-2(3H)-one], the pKi in series [1] (setting [5]) was 8.06; in series [3] (setting [6]) it was 8.23. Also, in series [2], the CC50 at 5 days is 16 nM.
As to `Cc1noc(C)c1-c1cc(C(O)(c2ccc(F)cn2)c2c(F)cc(F)cc2F)c2[nH]c(=O)[nH]c2c1` (stereo not drawn) [Example 52, 6-(3,5-dimethylisoxazol-4-yl)-4-((5-fluoropyridin-2-yl)(hydroxy)(2,4,6-trifluorophenyl)methyl)-1H-benzo[d]imidazol-2(3H)-one], the pKi in series [1] (setting [5]) is 8.05; in series [3] (setting [6]) it was 8.19. In addition, the cytotoxic concentration (CC50) at 5 days in series [2] came out at 36.1 nM. Also, in series [4], the pEC50 is 6.87.
With `Cc1noc(C)c1-c1cc(C(O)(c2ccccn2)c2ccc(Cl)cn2)c2[nH]c(=O)[nH]c2c1` (stereo not drawn) [Example 54, 4-((5-chloropyridin-2-yl)(hydroxy)(pyridin-2-yl)methyl)-6-(3,5-dimethylisoxazol-4-yl)-1H-benzo[d]imidazol-2(3H)-one], the figures for the pKi in series [1] and in series [3] were 7.64 and 7.85, respectively. In addition, the CC50 at 5 days in series [2] stood at 27.1 nM. In series [4], the pEC50 is 6.95.
Consider `Cc1noc(C)c1-c1cc(C(O)(c2ccc(Cl)cn2)c2ccc(Cl)cn2)c2[nH]c(=O)[nH]c2c1` [Example 55, 4-(bis(5-chloropyridin-2-yl)(hydroxy)methyl)-6-(3,5-dimethylisoxazol-4-yl)-1H-benzo[d]imidazol-2(3H)-one], for which the pKi in series [1] (setting [5]) was 7.84; in series [3] (setting [6]), 7.74. The CC50 at 5 days in series [2] turned out to be 41 nM. Besides, in series [4], the negative logarithm of the EC50 (pEC50) is 6.85.
Consider `Cc1noc(C)c1-c1cc(C(O)(c2cnccn2)c2c(F)cc(F)cc2F)c2[nH]c(=O)[nH]c2c1` (stereo not drawn) [Example 56, 6-(3,5-dimethylisoxazol-4-yl)-4-(hydroxy(pyrazin-2-yl)(2,4,6-trifluorophenyl)methyl)-1H-benzo[d]imidazol-2(3H)-one], for which the pKi was 8.22 in series [1] (setting [5]) and 8.44 in series [3] (setting [6]). Further, the CC50 at 5 days in series [2] was found to be 24.8 nM. Moreover, in series [4], the pEC50 was 7.39.
Take `Cc1noc(C)c1-c1cc(-c2cccnc2C2CC2)c2[nH]c(=O)[nH]c2c1` [Example 73, 4-(2-cyclopropylpyridin-3-yl)-6-(3,5-dimethylisoxazol-4-yl)-1H-benzo[d]imidazol-2(3H)-one]: the pKi was 7.47 in series [1] (setting [5]) and 7.62 in series [3] (setting [6]). In addition, the CC50 at 5 days in series [2] is 61 nM. Moreover, the pEC50 in series [4] was 6.81.
Take `Cc1noc(C)c1-c1cc(C(O)(c2ccccn2)C2CCCCC2)c2[nH]c(=O)[nH]c2c1` (stereo not drawn) [Example 144, 4-(cyclohexyl(hydroxy)(pyridin-2-yl)methyl)-6-(3,5-dimethylisoxazol-4-yl)-1H-benzo[d]imidazol-2(3H)-one]: the values for the pKi in series [1] (setting [5]) and in series [3] (setting [6]) were 8.11 and 8.57, respectively.

The record behind these values is US20160031868A1, “BENZIMIDAZOLONE DERIVATIVES AS BROMODOMAIN INHIBITORS” (GILEAD SCIENCES, INC., priority 2013, published 2016).
